Laboratory results reported in BindingDB's records for doi:10.1007/s00044-013-0771-5 (n/a, 2013).

Target: Prostaglandin G/H synthase 1/2 (Homo sapiens, UniProt P23219+P35354)
Assay: Inhibition of COX (unknown origin)

Chain of Prostaglandin G/H synthase 1/2 (P35354 whole entry): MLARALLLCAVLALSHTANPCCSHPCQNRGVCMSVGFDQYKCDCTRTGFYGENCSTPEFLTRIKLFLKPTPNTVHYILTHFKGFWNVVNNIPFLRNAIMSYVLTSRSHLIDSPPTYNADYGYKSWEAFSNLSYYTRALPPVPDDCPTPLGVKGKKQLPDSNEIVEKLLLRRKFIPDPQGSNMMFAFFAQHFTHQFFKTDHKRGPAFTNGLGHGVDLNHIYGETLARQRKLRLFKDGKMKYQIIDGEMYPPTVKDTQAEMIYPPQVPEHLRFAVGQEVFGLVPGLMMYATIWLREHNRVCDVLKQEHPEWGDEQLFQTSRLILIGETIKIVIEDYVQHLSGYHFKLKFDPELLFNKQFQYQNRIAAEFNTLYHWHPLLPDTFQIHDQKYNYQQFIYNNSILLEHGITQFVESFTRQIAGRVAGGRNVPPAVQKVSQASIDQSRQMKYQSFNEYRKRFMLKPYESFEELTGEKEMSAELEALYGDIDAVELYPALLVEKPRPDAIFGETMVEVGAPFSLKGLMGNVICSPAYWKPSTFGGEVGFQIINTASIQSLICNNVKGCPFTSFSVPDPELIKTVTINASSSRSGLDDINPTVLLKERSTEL
Chain of Prostaglandin G/H synthase 1/2 (P23219 whole entry): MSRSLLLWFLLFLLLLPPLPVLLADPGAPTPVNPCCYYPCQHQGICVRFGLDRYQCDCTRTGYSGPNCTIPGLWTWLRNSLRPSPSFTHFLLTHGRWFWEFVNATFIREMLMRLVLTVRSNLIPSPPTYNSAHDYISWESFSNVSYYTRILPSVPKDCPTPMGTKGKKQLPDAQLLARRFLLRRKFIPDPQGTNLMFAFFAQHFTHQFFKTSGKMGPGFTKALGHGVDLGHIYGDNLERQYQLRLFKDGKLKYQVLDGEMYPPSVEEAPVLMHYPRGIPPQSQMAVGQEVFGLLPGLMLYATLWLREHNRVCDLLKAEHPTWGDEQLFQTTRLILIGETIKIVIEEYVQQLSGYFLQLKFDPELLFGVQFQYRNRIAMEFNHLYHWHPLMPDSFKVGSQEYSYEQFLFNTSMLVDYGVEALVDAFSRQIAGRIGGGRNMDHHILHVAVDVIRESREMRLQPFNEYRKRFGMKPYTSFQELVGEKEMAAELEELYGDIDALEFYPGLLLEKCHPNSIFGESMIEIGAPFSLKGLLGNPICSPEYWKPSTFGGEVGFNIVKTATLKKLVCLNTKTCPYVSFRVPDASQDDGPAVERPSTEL

Row | SMILES | IC50 [µM]
1 | O=C(O)Cc1cc(O)ccc1Nc1c(Cl)cccc1Cl [CHEBI:59612] | 447
2 | O=C(O)Cc1cc(O)ccc1Nc1c(Cl)cc(O)cc1Cl [CHEBI:223401] | 912
